# PubChem BioAssay AID2060889 (Molecular Pharmacology Branch, DTP, NCI, 2025)
# Tested on: LG0567-F671-PDC complex spheroids viability
# Assay: Anticancer human tumor LG0567-F671-PDC patient-derived lung adenocarcinoma cell line growth inhibition [RAS]
# Settings: for IC50: curve of first compound; for viability, T/C: stronger effect = lower value
# Method in brief: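 Agents were tested in combination matrices in half-log decrements from a top concentration at or near clinical Cmax (10 microM if undetermined). Targets were multi-cell spheroids of tumour lines plus HUVEC and MSC stromal cells.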
# [1] = second compound 0.000949 µM, first compound 0.00316 µM
# [2] = second compound 0.000949 µM, first compound 0.01 µM
# [3] = second compound 0.000949 µM, first compound 0.0316 µM
# [4] = second compound 0.000949 µM, first compound 0.1 µM
# [5] = second compound 0.000949 µM, first compound 0.316 µM
# [6] = second compound 0.000949 µM, first compound 1 µM
# [7] = second compound 0.003 µM, first compound 0.00316 µM
# [8] = second compound 0.003 µM, first compound 0.01 µM
# [9] = second compound 0.003 µM, first compound 0.0316 µM
# [10] = second compound 0.003 µM, first compound 0.1 µM
# [11] = second compound 0.003 µM, first compound 0.316 µM
# [12] = second compound 0.003 µM, first compound 1 µM
# [13] = second compound 0.00949 µM, first compound 0.00316 µM
# [14] = second compound 0.00949 µM, first compound 0.01 µM
# [15] = second compound 0.00949 µM, first compound 0.0316 µM
# [16] = second compound 0.00949 µM, first compound 0.1 µM
# [17] = second compound 0.00949 µM, first compound 0.316 µM
# [18] = second compound 0.00949 µM, first compound 1 µM
# [19] = second compound 0.03 µM, first compound 0.00316 µM
# [20] = second compound 0.03 µM, first compound 0.01 µM
# [21] = second compound 0.03 µM, first compound 0.0316 µM
# [22] = second compound 0.03 µM, first compound 0.1 µM
# [23] = second compound 0.03 µM, first compound 0.316 µM
# [24] = second compound 0.03 µM, first compound 1 µM
# [25] = second compound 0.0949 µM, first compound 0.00316 µM
# [26] = second compound 0.0949 µM, first compound 0.01 µM
# [27] = second compound 0.0949 µM, first compound 0.0316 µM
# [28] = second compound 0.0949 µM, first compound 0.1 µM
# [29] = second compound 0.0949 µM, first compound 0.316 µM
# [30] = second compound 0.0949 µM, first compound 1 µM
# [31] = second compound 0.3 µM, first compound 0.00316 µM
# [32] = second compound 0.3 µM, first compound 0.01 µM
# [33] = second compound 0.3 µM, first compound 0.0316 µM
# [34] = second compound 0.3 µM, first compound 0.1 µM
# [35] = second compound 0.3 µM, first compound 0.316 µM
# [36] = second compound 0.3 µM, first compound 1 µM
# [37] = second compound 0.000949 µM, first compound 3.16 µM
# [38] = second compound 0.000949 µM, first compound 10 µM
# [39] = second compound 0.003 µM, first compound 3.16 µM
# [40] = second compound 0.003 µM, first compound 10 µM
# [41] = second compound 0.00949 µM, first compound 3.16 µM
# [42] = second compound 0.00949 µM, first compound 10 µM
# [43] = second compound 0.03 µM, first compound 3.16 µM
# [44] = second compound 0.03 µM, first compound 10 µM
# [45] = second compound 0.0949 µM, first compound 3.16 µM
# [46] = second compound 0.0949 µM, first compound 10 µM
# [47] = second compound 0.3 µM, first compound 3.16 µM
# [48] = second compound 0.3 µM, first compound 10 µM
# 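Also: spheroids exposed to compound for seven days before readout.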
# 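For IC50 in this document: luminescence signal used as a proxy for viable cells.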
structure (smiles),measurement,setting,value
C=CC(=O)Nc1cc(Nc2nccc(-c3cn(C)c4ccccc34)n2)c(OC)cc1N(C)CCN(C)C + CCn1c(-c2cc(N3CCN(C)CC3)cnc2C(C)OC)c2c3cc(ccc31)-c1csc(n1)CC(NC(=O)C1CC1C)C(=O)N1CCCC(N1)C(=O)OCC(C)(C)C2,IC50,second compound 0.000949 µM,< 0.00316 µM
same,IC50,second compound 0.003 µM,< 0.00316 µM
same,IC50,second compound 0.00949 µM,< 0.00316 µM
same,IC50,second compound 0.03 µM,< 0.00316 µM
same,IC50,second compound 0.0949 µM,< 0.00316 µM
same,IC50,second compound 0.3 µM,< 0.00316 µM
same,"viability, T/C",[1],24.1%
same,"viability, T/C",[2],19.9%
same,"viability, T/C",[3],17.7%
same,"viability, T/C",[4],11.7%
same,"viability, T/C",[5],5.93%
same,"viability, T/C",[6],2.95%
same,"viability, T/C",[7],11.5%
same,"viability, T/C",[8],10.2%
same,"viability, T/C",[9],8.59%
same,"viability, T/C",[10],4.71%
same,"viability, T/C",[11],3.14%
same,"viability, T/C",[12],1.73%
same,"viability, T/C",[13],6.67%
same,"viability, T/C",[14],6.47%
same,"viability, T/C",[15],4.89%
same,"viability, T/C",[16],3.67%
same,"viability, T/C",[17],1.84%
same,"viability, T/C",[18],1.07%
same,"viability, T/C",[19],3.85%
same,"viability, T/C",[20],3.87%
same,"viability, T/C",[21],11.8%
same,"viability, T/C",[22],2.59%
same,"viability, T/C",[23],1.49%
same,"viability, T/C",[24],0.76%
same,"viability, T/C",[25],3.44%
same,"viability, T/C",[26],2.65%
same,"viability, T/C",[27],2.81%
same,"viability, T/C",[28],2.03%
same,"viability, T/C",[29],1.32%
same,"viability, T/C",[30],0.84%
same,"viability, T/C",[31],2.71%
same,"viability, T/C",[32],2.18%
same,"viability, T/C",[33],2.37%
same,"viability, T/C",[34],1.85%
same,"viability, T/C",[35],1.11%
same,"viability, T/C",[36],0.63%
CC(C)NCC(C(=O)N1CCN(c2ncnc3c2C(C)CC3O)CC1)c1ccc(Cl)cc1 (stereo not drawn) + CCn1c(-c2cc(N3CCN(C)CC3)cnc2C(C)OC)c2c3cc(ccc31)-c1csc(n1)CC(NC(=O)C1CC1C)C(=O)N1CCCC(N1)C(=O)OCC(C)(C)C2,IC50,second compound 0.000949 µM,< 0.0316 µM
same,IC50,second compound 0.003 µM,< 0.0316 µM
same,IC50,second compound 0.00949 µM,< 0.0316 µM
same,IC50,second compound 0.03 µM,< 0.0316 µM
same,IC50,second compound 0.0949 µM,< 0.0316 µM
same,IC50,second compound 0.3 µM,< 0.0316 µM
same,"viability, T/C",[3],25.2%
same,"viability, T/C",[4],23.8%
same,"viability, T/C",[5],19.2%
same,"viability, T/C",[6],14.8%
same,"viability, T/C",[37],12.1%
same,"viability, T/C",[38],15.1%
same,"viability, T/C",[9],12.2%
same,"viability, T/C",[10],10.1%
same,"viability, T/C",[11],9.03%
same,"viability, T/C",[12],7.01%
same,"viability, T/C",[39],6.61%
same,"viability, T/C",[40],6.58%
same,"viability, T/C",[15],6.47%
same,"viability, T/C",[16],6.39%
same,"viability, T/C",[17],5.04%
same,"viability, T/C",[18],4.97%
same,"viability, T/C",[41],3.86%
same,"viability, T/C",[42],3.52%
same,"viability, T/C",[21],4.03%
same,"viability, T/C",[22],3.99%
same,"viability, T/C",[23],3.4%
same,"viability, T/C",[24],2.83%
same,"viability, T/C",[43],2.4%
same,"viability, T/C",[44],2.51%
same,"viability, T/C",[27],3.05%
same,"viability, T/C",[28],2.86%
same,"viability, T/C",[29],2.34%
same,"viability, T/C",[30],1.84%
same,"viability, T/C",[45],1.68%
same,"viability, T/C",[46],1.73%
same,"viability, T/C",[33],2.97%
same,"viability, T/C",[34],2.51%
same,"viability, T/C",[35],2.28%
same,"viability, T/C",[36],1.91%
same,"viability, T/C",[47],1.51%
same,"viability, T/C",[48],1.41%
CC(Nc1ccc2c(c1)OCCn1cc(N3C(=O)OCC3C(F)F)nc1-2)C(N)=O (stereo not drawn) + CCn1c(-c2cc(N3CCN(C)CC3)cnc2C(C)OC)c2c3cc(ccc31)-c1csc(n1)CC(NC(=O)C1CC1C)C(=O)N1CCCC(N1)C(=O)OCC(C)(C)C2,IC50,second compound 0.000949 µM,< 0.0316 µM
same,IC50,second compound 0.003 µM,< 0.0316 µM
same,IC50,second compound 0.00949 µM,< 0.0316 µM
same,IC50,second compound 0.03 µM,< 0.0316 µM
same,IC50,second compound 0.0949 µM,< 0.0316 µM
same,IC50,second compound 0.3 µM,< 0.0316 µM
same,"viability, T/C",[3],19.3%
same,"viability, T/C",[4],12.9%
same,"viability, T/C",[5],10.5%
same,"viability, T/C",[6],7.84%
same,"viability, T/C",[37],7.19%
same,"viability, T/C",[38],7.14%
same,"viability, T/C",[9],7.68%
same,"viability, T/C",[10],7.52%
same,"viability, T/C",[11],5.35%
same,"viability, T/C",[12],3.88%
same,"viability, T/C",[39],3.53%
same,"viability, T/C",[40],3.37%
same,"viability, T/C",[15],5.03%
same,"viability, T/C",[16],3.43%
same,"viability, T/C",[17],3.46%
same,"viability, T/C",[18],2.91%
same,"viability, T/C",[41],1.87%
same,"viability, T/C",[42],1.74%
same,"viability, T/C",[21],3.07%
same,"viability, T/C",[22],2.58%
same,"viability, T/C",[23],1.57%
same,"viability, T/C",[24],1.37%
same,"viability, T/C",[43],1.64%
same,"viability, T/C",[44],1.25%
same,"viability, T/C",[27],2.35%
same,"viability, T/C",[28],2.02%
same,"viability, T/C",[29],1.42%
same,"viability, T/C",[30],1.29%
same,"viability, T/C",[45],1.01%
same,"viability, T/C",[46],0.89%
same,"viability, T/C",[33],2.27%
same,"viability, T/C",[34],1.33%
same,"viability, T/C",[35],1.26%
same,"viability, T/C",[36],1.33%
same,"viability, T/C",[47],1.18%
same,"viability, T/C",[48],0.92%
O=C(c1ccc(F)c(F)c1Nc1ccc(I)cc1F)N1CC(O)([C@@H]2CCCCN2)C1 + CCn1c(-c2cc(N3CCN(C)CC3)cnc2C(C)OC)c2c3cc(ccc31)-c1csc(n1)CC(NC(=O)C1CC1C)C(=O)N1CCCC(N1)C(=O)OCC(C)(C)C2,IC50,second compound 0.000949 µM,< 0.00316 µM
same,IC50,second compound 0.003 µM,< 0.00316 µM
same,IC50,second compound 0.00949 µM,< 0.00316 µM
same,IC50,second compound 0.03 µM,< 0.00316 µM
same,IC50,second compound 0.0949 µM,< 0.00316 µM
same,IC50,second compound 0.3 µM,< 0.00316 µM
same,"viability, T/C",[1],21.6%
same,"viability, T/C",[2],13.6%
same,"viability, T/C",[3],8.81%
same,"viability, T/C",[4],6.2%
same,"viability, T/C",[5],1.53%
same,"viability, T/C",[6],0.54%
same,"viability, T/C",[7],8.59%
same,"viability, T/C",[8],6.83%
same,"viability, T/C",[9],4.65%
same,"viability, T/C",[10],2.36%
same,"viability, T/C",[11],1.05%
same,"viability, T/C",[12],0.48%
same,"viability, T/C",[13],5.45%
same,"viability, T/C",[14],3.36%
same,"viability, T/C",[15],2.12%
same,"viability, T/C",[16],0.98%
same,"viability, T/C",[17],0.46%
same,"viability, T/C",[18],0.34%
same,"viability, T/C",[19],3.69%
same,"viability, T/C",[20],1.98%
same,"viability, T/C",[21],1.07%
same,"viability, T/C",[22],0.6%
same,"viability, T/C",[23],0.54%
same,"viability, T/C",[24],0.95%
same,"viability, T/C",[25],1.82%
same,"viability, T/C",[26],1.19%
same,"viability, T/C",[27],0.64%
same,"viability, T/C",[28],0.56%
same,"viability, T/C",[29],0.47%
same,"viability, T/C",[30],0.32%
same,"viability, T/C",[31],1.58%
same,"viability, T/C",[32],1.13%
same,"viability, T/C",[33],0.59%
same,"viability, T/C",[34],0.43%
same,"viability, T/C",[35],0.53%
same,"viability, T/C",[36],0.43%
